Measured values reported in patent US8288410B2, “3-substituted quinolinium and 7H-indolo[2,3-c]quinolinium salts as new antiinfectives” (Florida Agricultural and Mechanical University, priority 2008, dated 2012).

Key:
MRSA = assay: Antibacterial susceptibility testing, MRSA; type: cell-based, methicillin resistant Staphylococcus aureus; details: Table 1
Experimental: (§1) Using standard susceptibility tests, the compounds of the invention were determined to be active against MRSA, C. neoformans and several other bacteria, fungi and protozoa. More specifically, the antibacterial and antifungal testing was carried out in the following manner. Cryptococcus neoformans ATCC 90113 and MRSA were obtained from the American Type Culture Collection (Manassas. Va.). Several others including Candida albicans ATTC 90028, Aspergillus fumigatus ATCC 90906 and Mycobacterium intracellulare (M. intracellulare) ATCC 23086 were also procured. Susceptibility testing was performed using a modified version of the National Committee for Clinical Laboratory Standards method. M. intracellulare was tested using a modified method of Franzblau, et al., J. Clin. Microbiol., 1998, 36, 362-366. DMSO solutions of samples were serially diluted in saline, and transferred in duplicate to 96 well microplates. Microbial suspensions were diluted in the broth to afford desired colony forming units/mL according to the 0.5 McFarland Standard [C. Albicans: either Saboraud Dextrose broth (SDB) or RPMI 1640, C. neoformans: SDB, A fumigatus: either YM broth (for MICS) or RPMI-1640+5% Alamar Blue.] After adding microbial cultures to the sampled afforded a final volume of 200 μL and final test concentration starting with 20 μg/mL, plates were read prior to and after final incubation using either fluorescence at 544ex/590em (M intracellulare, A. fumigatus) using the Polarstar galaxy reader (Biotek Instruments, Vermont). Growth (saline only), solvent and blank (media only) controls were included on each test plate. Drug controls [Ciprofloxacin (ICN Biomedicals, Ohio) for bacteria and Amphotericin B (ICN Biomedicals, Ohio) for fungi] were included in each assay. Percent growth was calculated and plotted versus test concentration to afford IC50 (sample concentration that affords 50% inhibition or growth of the organism). The minimum inhibitory concentration (MIC) was determined by visually inspecting the plate, and is defined as the lowest test concentration that allows no detectable growth (for Almar Blue assays, no color change from blue to pink).

[1] = test system: Aspergillus fumigatus ATCC 90906; assay: Antifungal susceptibility testing, Aspergillus fumigatus; type: cell-based; details: Table 1; Aspergillus fumigatus
Experimental: as §1

[2] = test system: Candida albicans ATTC 90028; assay: Antifungal susceptibility testing, Candida albicans; type: cell-based; details: Table 1
Experimental: as §1

[3] = test system: Cryptococcus neoformans ATCC 90113; assay: Antifungal susceptibility testing, Cryptococcus neoformans; type: cell-based; details: Table 1
Experimental: as §1

| Structure (SMILES) | MRS IC50 (MRSA) | MRS MFC (MRSA) | MRS MIC (MRSA) | A fu IC50 [1] | A fu MFC [1] | A fu MIC [1] | Ca IC50 [2] | Ca MFC [2] | Ca MIC [2] | Cn IC50 [3] | Cn MFC [3] | Cn MIC [3] |
| --- | --- | --- | --- | --- | --- | --- | --- | --- | --- | --- | --- | --- |
| COc1ccccc1Sc1cc2ccccc2[n+](CCCCCc2ccccc2)c1.[I-] [XYZ-IV-18] | 0.25 µg/mL | 5.0 µg/mL | 0.63 µg/mL | 0.09 µg/mL | 10 µg/mL | 1.3 µg/mL | 3.0 µg/mL | — ((-) = >20 μg/mL) | 10 µg/mL | 0.85 µg/mL | 5.0 µg/mL | 2.5 µg/mL |
| Fc1ccccc1Sc1cc2ccccc2[n+](CCCCCc2ccccc2)c1.[I-] [XYZ-IV-19] | 0.40 µg/mL | 5.0 µg/mL | 0.63 µg/mL | 0.20 µg/mL | — ((-) = >20 μg/mL) | 0.31 µg/mL | 2.5 µg/mL | 20 µg/mL | 10 µg/mL | 0.25 µg/mL | 2.5 µg/mL | 0.63 µg/mL |
| COc1cccc(Sc2cc3ccccc3[n+](CCCCCc3ccccc3)c2)c1.[I-] [XYZ-IV-20] | 0.70 µg/mL | 10 µg/mL | 1.3 µg/mL | 0.55 µg/mL | — ((-) = >20 μg/mL) | 1.3 µg/mL | 7.0 µg/mL | — ((-) = >20 μg/mL) | 20 µg/mL | 1.5 µg/mL | 10 µg/mL | 2.5 µg/mL |
| Fc1cccc(Sc2cc3ccccc3[n+](CCCCCc3ccccc3)c2)c1.[I-] [XYZ-IV-21] | 0.20 µg/mL | 20 µg/mL | 0.63 µg/mL | 0.10 µg/mL | — ((-) = >20 μg/mL) | 0.16 µg/mL | 3.0 µg/mL | 20 µg/mL | 10 µg/mL | 0.40 µg/mL | 2.5 µg/mL | 0.63 µg/mL |
| FC(F)(F)c1ccccc1Sc1cc2ccccc2[n+](CCCCCc2ccccc2)c1.[I-] [XYZ-IV-25] | 0.05 µg/mL | 2.5 µg/mL | 0.16 µg/mL | 0.03 µg/mL | 10 µg/mL | 0.08 µg/mL | 0.4 µg/mL | 2.5 µg/mL | 1.3 µg/mL | 0.06 µg/mL | 0.63 µg/mL | 0.16 µg/mL |
| [I-].[O-][S+](c1ccccc1)c1cc2ccccc2[n+](CCCCCc2ccccc2)c1 (centres unmarked) [XYZ-IV-79] | 1.5 µg/mL | — ((-) = >20 μg/mL) | 5.0 µg/mL | — ((-) = >20 μg/mL) | — ((-) = >20 μg/mL) | — ((-) = >20 μg/mL) | — ((-) = >20 μg/mL) | — ((-) = >20 μg/mL) | — ((-) = >20 μg/mL) | – | — ((-) = >20 μg/mL) | — ((-) = >20 μg/mL) |
| [I-].[O-][S+](c1ccc(F)cc1)c1cc2ccccc2[n+](CCCCCc2ccccc2)c1 (centres unmarked) [XYZ-IV-84] | 0.80 µg/mL | 20 µg/mL | 5.0 µg/mL | — ((-) = >20 μg/mL) | — ((-) = >20 μg/mL) | — ((-) = >20 μg/mL) | — ((-) = >20 μg/mL) | — ((-) = >20 μg/mL) | — ((-) = >20 μg/mL) | – | — ((-) = >20 μg/mL) | — ((-) = >20 μg/mL) |
| [I-].[O-][S+](c1cccc(C(F)(F)F)c1)c1cc2ccccc2[n+](CCCCCc2ccccc2)c1 (centres unmarked) [XYZ-IV-87] | 0.25 µg/mL | 20 µg/mL | 1.3 µg/mL | — ((-) = >20 μg/mL) | — ((-) = >20 μg/mL) | — ((-) = >20 μg/mL) | — ((-) = >20 μg/mL) | — ((-) = >20 μg/mL) | — ((-) = >20 μg/mL) | 6.5 µg/mL | 20 µg/mL | 20 µg/mL |
| [I-].[O-][S+](c1cc2ccccc2[n+](CCCCCc2ccccc2)c1)c1ccccc1C(F)(F)F (centres unmarked) [XYZ-IV-90] | 0.25 µg/mL | 10 µg/mL | 0.63 µg/mL | — ((-) = >20 μg/mL) | — ((-) = >20 μg/mL) | — ((-) = >20 μg/mL) | 15 µg/mL | — ((-) = >20 μg/mL) | — ((-) = >20 μg/mL) | 5.5 µg/mL | — ((-) = >20 μg/mL) | 20 µg/mL |
| [I-].[O-][S+](c1cc2ccccc2[n+](CCCCCc2ccccc2)c1)c1ccccc1Br (centres unmarked) [XYZ-IV-98] | 0.35 µg/mL | — ((-) = >20 μg/mL) | 1.3 µg/mL | 15 µg/mL | — ((-) = >20 μg/mL) | — ((-) = >20 μg/mL) | — ((-) = >20 μg/mL) | — ((-) = >20 μg/mL) | — ((-) = >20 μg/mL) | 5.5 µg/mL | — ((-) = >20 μg/mL) | 20 µg/mL |
| [I-].[O-][S+](c1cc2ccccc2[n+](CCCCCc2ccccc2)c1)c1ccccc1F (centres unmarked) [XYZ-IV-100] | 1.5 µg/mL | — ((-) = >20 μg/mL) | 5.0 µg/mL | — ((-) = >20 μg/mL) | — ((-) = >20 μg/mL) | — ((-) = >20 μg/mL) | — ((-) = >20 μg/mL) | — ((-) = >20 μg/mL) | — ((-) = >20 μg/mL) | – | — ((-) = >20 μg/mL) | — ((-) = >20 μg/mL) |
| [I-].[O-][S+](c1cc2ccccc2[n+](CCCCCc2ccccc2)c1)c1ccccc1Cl (centres unmarked) [XYZ-V-9] | 0.75 µg/mL | — ((-) = >20 μg/mL) | 2.5 µg/mL | — ((-) = >20 μg/mL) | — ((-) = >20 μg/mL) | — ((-) = >20 μg/mL) | — ((-) = >20 μg/mL) | — ((-) = >20 μg/mL) | — ((-) = >20 μg/mL) | 10 µg/mL | — ((-) = >20 μg/mL) | 20 µg/mL |
| [I-].[O-][S+](c1cc(C(F)(F)F)cc(C(F)(F)F)c1)c1cc2ccccc2[n+](CCCCCc2ccccc2)c1 (centres unmarked) [XYZ-V-13] | 0.20 µg/mL | 10 µg/mL | 0.63 µg/mL | — ((-) = >20 μg/mL) | — ((-) = >20 μg/mL) | — ((-) = >20 μg/mL) | 10 µg/mL | 20 µg/mL | 20 µg/mL | 3.0 µg/mL | 20 µg/mL | 5.0 µg/mL |
| [I-].[O-][S+](c1ccc(Br)cc1)c1cc2ccccc2[n+](CCCCCc2ccccc2)c1 (centres unmarked) [XYZ-V-20] | 0.50 µg/mL | — ((-) = >20 μg/mL) | 2.5 µg/mL | — ((-) = >20 μg/mL) | — ((-) = >20 μg/mL) | — ((-) = >20 μg/mL) | — ((-) = >20 μg/mL) | — ((-) = >20 μg/mL) | — ((-) = >20 μg/mL) | 7.0 µg/mL | — ((-) = >20 μg/mL) | 10 µg/mL |
| COc1ccc([S+]([O-])c2cc3ccccc3[n+](CCCCCc3ccccc3)c2)cc1.[I-] (centres unmarked) [XYZ-V-21] | 7.00 µg/mL | — ((-) = >20 μg/mL) | 20 µg/mL | — ((-) = >20 μg/mL) | — ((-) = >20 μg/mL) | — ((-) = >20 μg/mL) | — ((-) = >20 μg/mL) | — ((-) = >20 μg/mL) | — ((-) = >20 μg/mL) | — ((-) = >20 μg/mL) | — ((-) = >20 μg/mL) | — ((-) = >20 μg/mL) |
| COc1cccc([S+]([O-])c2cc3ccccc3[n+](CCCCCc3ccccc3)c2)c1.[I-] (centres unmarked) [XYZ-V-23] | 2.50 µg/mL | — ((-) = >20 μg/mL) | 10 µg/mL | — ((-) = >20 μg/mL) | — ((-) = >20 μg/mL) | — ((-) = >20 μg/mL) | — ((-) = >20 μg/mL) | — ((-) = >20 μg/mL) | — ((-) = >20 μg/mL) | – | — ((-) = >20 μg/mL) | — ((-) = >20 μg/mL) |
